Measurements from ChEMBL document CHEMBL4312013 (Eur J Med Chem, 2020).
Converted amounts (≈) assume the structure as drawn. Each block holds one compound with its values, some of them ahead of it. The source made the active and inactive calls. The calls are words filed in the database; no cut-off is given here.

Tests used:
[1] = test system: Staphylococcus aureus; assay: microbe, parasite or virus in culture; type: functional; conditions: NCTC 4163, 18 h
[2] = test system: Staphylococcus aureus; assay: microbe, parasite or virus in culture; type: functional; conditions: ATCC 29213, 18 h
[3] = test system: Staphylococcus aureus; assay: microbe, parasite or virus in culture; type: functional; conditions: ATCC 6538, 18 h
[4] = test system: Staphylococcus epidermidis; assay: microbe, parasite or virus in culture; type: functional; conditions: ATCC 12228, 18 h
[5] = test system: Enterococcus hirae; assay: microbe, parasite or virus in culture; type: functional; conditions: ATCC 10541, 18 h
[6] = test system: Escherichia coli; assay: microbe, parasite or virus in culture; type: functional; conditions: ATCC 25922, 18 h
[7] = test system: Escherichia coli; assay: microbe, parasite or virus in culture; type: functional; conditions: NCTC 8196, 18 h
[8] = test system: Pseudomonas aeruginosa; assay: microbe, parasite or virus in culture; type: functional; conditions: ATCC 15442, 18 h
[9] = test system: Pseudomonas aeruginosa; assay: microbe, parasite or virus in culture; type: functional; conditions: ATCC 27853, 18 h
[10] = test system: SW480; assay: Cytotoxicity against human SW480 cells at 60 uM incubated for 72 hrs by LDH release assay (reference value: […]); type: functional
[11] = test system: SW480; assay: Cytotoxicity against human SW480 cells at 40 uM incubated for 72 hrs by LDH release assay (reference value: […]); type: functional
[12] = test system: SW480; assay: Cytotoxicity against human SW480 cells at 20 uM incubated for 72 hrs by LDH release assay (reference value: […]); type: functional
[13] = test system: SW480; assay: Cytotoxicity against human SW480 cells at 10 uM incubated for 72 hrs by LDH release assay (reference value: […]); type: functional
[14] = test system: SW-620; assay: Cytotoxicity against human SW620 cells at 60 uM incubated for 72 hrs by LDH release assay (reference value: 4.2 %); type: functional
[15] = test system: SW-620; assay: Cytotoxicity against human SW620 cells at 40 uM incubated for 72 hrs by LDH release assay (reference value: 4.2 %); type: functional
[16] = test system: SW-620; assay: Cytotoxicity against human SW620 cells at 20 uM incubated for 72 hrs by LDH release assay (reference value: 4.2 %); type: functional
[17] = test system: SW-620; assay: Cytotoxicity against human SW620 cells at 10 uM incubated for 72 hrs by LDH release assay (reference value: 4.2 %); type: functional
[18] = test system: PC-3; assay: Cytotoxicity against human PC3 cells at 60 uM incubated for 72 hrs by LDH release assay (reference value: […]); type: functional
[19] = test system: PC-3; assay: Cytotoxicity against human PC3 cells at 40 uM incubated for 72 hrs by LDH release assay (reference value: […]); type: functional
[20] = test system: PC-3; assay: Cytotoxicity against human PC3 cells at 20 uM incubated for 72 hrs by LDH release assay (reference value: […]); type: functional
[21] = test system: PC-3; assay: Cytotoxicity against human PC3 cells at 10 uM incubated for 72 hrs by LDH release assay (reference value: […]); type: functional
[22] = test system: PC-3; assay: Induction of apoptosis in human PC3 cells assessed as viable cells at antiproliferative IC50 incubated for 72 hrs by annexin V FITC and PI staining based flow cytometry (reference value: 95.1 %); type: functional
[23] = test system: PC-3; assay: Induction of apoptosis in human PC3 cells assessed as early apoptotic cells at antiproliferative IC50 incubated for 72 hrs by annexin V FITC and PI staining based flow cytometry (reference value: […]); type: functional
[24] = test system: PC-3; assay: Induction of apoptosis in human PC3 cells assessed as late apoptotic cells at antiproliferative IC50 incubated for 72 hrs by annexin V FITC and PI staining based flow cytometry (reference value: […]); type: functional
[25] = test system: PC-3; assay: Induction of apoptosis in human PC3 cells assessed as necrotic cells at antiproliferative IC50 incubated for 72 hrs by annexin V FITC and PI staining based flow cytometry (reference value: […]); type: functional
[26] = test system: SW-620; assay: Induction of apoptosis in human SW620 cells at antiproliferative IC50 incubated for 72 hrs by annexin V FITC and PI staining based flow cytometry; type: functional
[27] = test system: HaCaT; assay: Induction of apoptosis in human HaCaT cells at antiproliferative IC50 incubated for 72 hrs by annexin V FITC and PI staining based flow cytometry; type: cell-based
[28] = test system: SW480; assay: Reduction of IL-6 level in human SW480 cells at antiproliferative IC50 incubated for 72 hrs by ELISA relative to control; type: functional
[29] = test system: SW-620; assay: Reduction of IL-6 level in human SW620 cells at antiproliferative IC50 incubated for 72 hrs by ELISA relative to control; type: functional
[30] = test system: HaCaT; assay: Reduction of IL-6 level in human HaCaT cells at antiproliferative IC50 incubated for 72 hrs by ELISA relative to control; type: cell-based
[31] = test system: SW480; assay: Antiproliferative activity against human SW480 cells assessed as reduction in cell viability incubated for 72 hrs by MTT assay; type: functional, cell-based; conditions: SW480, 72 h
[32] = test system: HaCaT; assay: Cytotoxicity against human HaCaT cells assessed as reduction in cell viability incubated for 72 hrs by MTT assay; type: cell-based
[33] = test system: PC-3; assay: Antitumor activity against human PC3 cells assessed as reduction in IL-6 level at antiproliferative IC50 incubated for 72 hrs by ELISA relative to control; type: functional

Compound: C/C=C/C=C/C(=O)O [SORBIC ACID]
MIC [1]: > 512 µg/mL
MIC [2]: > 512 µg/mL
MIC [3]: > 512 µg/mL
MIC [4]: > 512 µg/mL
MIC [5]: 512 µg/mL (≈ 4570 µM)
MIC [6]: 512 µg/mL (≈ 4570 µM)
MIC [7]: > 512 µg/mL
MIC [8]: 512 µg/mL (≈ 4570 µM)
MIC [9]: 512 µg/mL (≈ 4570 µM)

Compound: CCCCCCCCCCCCCCCC(=O)O [PALMITIC ACID]
MIC [1]: 512 µg/mL (≈ 2000 µM)
MIC [2]: 512 µg/mL (≈ 2000 µM)
MIC [3]: 512 µg/mL (≈ 2000 µM)
MIC [4]: 512 µg/mL (≈ 2000 µM)
MIC [5]: 512 µg/mL (≈ 2000 µM)
MIC [6]: 512 µg/mL (≈ 2000 µM)
MIC [7]: 512 µg/mL (≈ 2000 µM)
MIC [8]: 512 µg/mL (≈ 2000 µM)
MIC [9]: 512 µg/mL (≈ 2000 µM)

Compound: O=C(O)c1cn(C2CC2)c2cc(N3CCNCC3)c(F)cc2c1=O [CIPROFLOXACIN]
Activity [10]: 15%
Activity [11]: 14.5%
Activity [12]: 14.2%
Activity [13]: 12%
Activity [14]: 9.3%
Activity [15]: 9.1%
Activity [16]: 8.9%
Activity [17]: 8.1%
Activity [18]: 18%
Activity [19]: 17.5%
Activity [20]: 16.5%
Activity [21]: 14%
Activity [22]: 59.7%
Activity [23]: 5.3%
Activity [24]: 31.1%
Activity [25]: 3.9%
Activity [26]: 31.4 - 39.2%
Activity [27]: 6.2 to 12%
Activity [28]: Active
Activity [29]: Active
Activity [30]: Active
MIC [1]: 0.25 µg/mL (≈ 0.754 µM)
MIC [2]: 0.5 µg/mL (≈ 1.51 µM)
MIC [3]: 0.5 µg/mL (≈ 1.51 µM)
MIC [4]: 0.25 µg/mL (≈ 0.754 µM)
MIC [5]: 8 µg/mL (≈ 24.1 µM)

Compound: CCCCCCCC/C=C\CCCCCCCCCCCC(=O)O [ERUCIC ACID]
MIC [1]: > 512 µg/mL
MIC [2]: > 512 µg/mL
MIC [3]: 128 µg/mL (≈ 378 µM)
MIC [4]: 256 µg/mL (≈ 756 µM)
MIC [5]: 64 µg/mL (≈ 189 µM)
MIC [6]: > 512 µg/mL
MIC [7]: 512 µg/mL (≈ 1510 µM)
MIC [8]: 512 µg/mL (≈ 1510 µM)
MIC [9]: 512 µg/mL (≈ 1510 µM)

Compound: CC(C)=CCC/C(C)=C/C(=O)O
MIC [1]: > 512 µg/mL
MIC [2]: > 512 µg/mL
MIC [3]: > 512 µg/mL
MIC [4]: 512 µg/mL (≈ 3040 µM)
MIC [5]: 512 µg/mL (≈ 3040 µM)
MIC [6]: 512 µg/mL (≈ 3040 µM)
MIC [7]: > 512 µg/mL
MIC [8]: 512 µg/mL (≈ 3040 µM)
MIC [9]: 512 µg/mL (≈ 3040 µM)

Compound: CCCCCCCC/C=C/CCCCCCCC(=O)O [ELAIDIC ACID]
MIC [1]: 512 µg/mL (≈ 1810 µM)
MIC [2]: 512 µg/mL (≈ 1810 µM)
MIC [3]: 512 µg/mL (≈ 1810 µM)
MIC [4]: 512 µg/mL (≈ 1810 µM)
MIC [5]: 512 µg/mL (≈ 1810 µM)
MIC [6]: 512 µg/mL (≈ 1810 µM)
MIC [7]: 512 µg/mL (≈ 1810 µM)
MIC [8]: 512 µg/mL (≈ 1810 µM)
MIC [9]: 512 µg/mL (≈ 1810 µM)

Compound: CCCCCCCC/C=C\CCCCCCCC(=O)O [OLEIC ACID]
MIC [1]: 256 to 512 µg/mL (≈ 906 to 1810 µM)
MIC [2]: 256 to 512 µg/mL (≈ 906 to 1810 µM)
MIC [3]: 256 µg/mL (≈ 906 µM)
MIC [4]: 512 µg/mL (≈ 1810 µM)
MIC [5]: 128 to 256 µg/mL (≈ 453 to 906 µM)
MIC [6]: 512 µg/mL (≈ 1810 µM)
MIC [7]: 512 µg/mL (≈ 1810 µM)
MIC [8]: 512 µg/mL (≈ 1810 µM)
MIC [9]: 256 to 512 µg/mL (≈ 906 to 1810 µM)

Now from value to compound, other results behind:

MIC [1]: 128 µg/mL (≈ 460 µM)
MIC [2]: 128 µg/mL (≈ 460 µM)
MIC [3]: 128 µg/mL (≈ 460 µM)
MIC [4]: 512 µg/mL (≈ 1840 µM)
MIC [5]: 512 µg/mL (≈ 1840 µM)
MIC [6]: > 512 µg/mL
MIC [7]: > 512 µg/mL
MIC [8]: 512 µg/mL (≈ 1840 µM)
MIC [9]: 512 µg/mL (≈ 1840 µM)
Compound: CC/C=C\C/C=C\C/C=C\CCCCCCCC(=O)O [LINOLENIC ACID]

MIC [1]: > 512 µg/mL
MIC [2]: > 512 µg/mL
MIC [3]: > 512 µg/mL
MIC [4]: > 512 µg/mL
MIC [5]: > 512 µg/mL
MIC [6]: > 512 µg/mL
MIC [7]: > 512 µg/mL
MIC [8]: > 512 µg/mL
MIC [9]: > 512 µg/mL
Compound: C/C=C/C(=O)O [CROTONIC ACID]

IC50 [31]: 750 nM
Compound: COc1cccc2c1C(=O)c1c(O)c3c(c(O)c1C2=O)C[C@@](O)(C(=O)CO)C[C@@H]3O[C@H]1C[C@H](N)[C@H](O)[C@H](C)O1 [DOXORUBICIN]
IC50 [32]: 290 nM
Activity [33]: Active
Activity [28]: Active
Activity [29]: Active
Activity [30]: Active
